Laboratory results taken from ChEMBL document CHEMBL1268940, “Synthesis and anticancer evaluation of thiazolyl-chalcones” (Bioorg Med Chem Lett, 2010).

Experiments:
[1] = test system: PC-3; assay: Cytotoxicity against human PC3 cells by MTT assay; assay type: functional, cell-based
[2] = test system: NCI-H460; assay: Cytotoxicity against human NCI-H460 cells by MTT assay; assay type: functional, cell-based
[3] = test system: BGC-823; assay: Cytotoxicity against human BGC823 cells by MTT assay; assay type: functional, cell-based
[4] = test system: Bel-7402; assay: Cytotoxicity against human Bel7402 cells by MTT assay; assay type: functional, cell-based
[5] = test system: CCRF S-180; assay: Anticancer activity against mouse S180 cells xenografted in ICR mouse assessed as tumor weight inhibition at 50 mg/kg, ip relative to control; assay type: functional; details: CCRF S-180, ip, route intraperitoneal
[6] = test system: CCRF S-180; assay: Anticancer activity against mouse S180 cells xenografted in ICR mouse assessed as tumor weight inhibition at 100 mg/kg, ip relative to control; details: CCRF S-180, ip, read-out: INH
[7] = test system: CCRF S-180; assay: Anticancer activity against mouse S180 cells xenografted in ICR mouse assessed as tumor weight inhibition at 25 mg/kg, ip relative to control; assay type: functional; details: CCRF S-180, ip, route intraperitoneal

| Compound | IC50 [1] [µM] | IC50 [2] [µM] | IC50 [3] [µM] | IC50 [4] [µM] | inhibition in vivo at 50 mg/kg [5] [%] | inhibition in vivo at 100 mg/kg [6] [%] | inhibition in vivo at 25 mg/kg [7] [%] |
| --- | --- | --- | --- | --- | --- | --- | --- |
| COc1cccc(/C=C/C(=O)c2sc(Nc3cccc(C)c3)nc2C)c1 | > 25 | > 25 | > 25 | > 25 | – | – | – |
| COc1cc(/C=C/C(=O)c2sc(Nc3ccccc3)nc2C)cc(OC)c1OC | > 25 | > 25 | > 25 | > 25 | – | – | – |
| Cc1nc(Nc2ccc(Cl)c(Cl)c2)sc1C(=O)/C=C/c1ccc2c(c1)OCO2 | > 25 | > 25 | > 25 | > 25 | – | – | – |
| Cc1nc(Nc2ccccc2)sc1C(=O)/C=C/c1ccccc1 | > 25 | > 25 | 19.5 | > 25 | – | – | – |
| Cc1nc(Nc2ccc(Cl)c(Cl)c2)sc1C(=O)/C=C/c1ccccc1 | 7.99 | 22.7 | 10.6 | 21.5 | – | – | – |
| COc1cccc(/C=C/C(=O)c2sc(Nc3ccc(C)cc3)nc2C)c1 | > 25 | > 25 | > 25 | > 25 | – | – | – |
| Cc1nc(Nc2ccccc2)sc1C(=O)/C=C/c1ccc(Cl)cc1 | > 25 | > 25 | > 25 | > 25 | – | – | – |
| COc1cc(/C=C/C(=O)c2sc(Nc3cccc(Cl)c3)nc2C)cc(OC)c1OC | > 25 | > 25 | 11.6 | 14 | – | – | – |
| Cc1nc(Nc2ccc(Cl)c(Cl)c2)sc1C(=O)/C=C/c1ccc(Cl)cc1 | > 25 | > 25 | 22.7 | > 25 | – | – | – |
| Cc1ccc(Nc2nc(C)c(C(=O)/C=C/c3ccc(Cl)cc3)s2)cc1 | > 25 | > 25 | > 25 | > 25 | – | – | – |
| Cc1nc(Nc2ccc(Cl)cc2)sc1C(=O)/C=C/c1ccccc1 | 24.6 | > 25 | > 25 | > 25 | – | – | – |
| COc1cccc(/C=C/C(=O)c2sc(Nc3ccccc3C)nc2C)c1 | > 25 | > 25 | > 25 | > 25 | – | – | – |
| COc1cc(/C=C/C(=O)c2sc(Nc3ccccc3C)nc2C)cc(OC)c1OC | > 25 | 6.32 | 5.4 | 10.3 | – | – | – |
| COc1cc(/C=C/C(=O)c2sc(Nc3ccc(Cl)c(Cl)c3)nc2C)cc(OC)c1OC | 19.3 | > 25 | > 25 | > 25 | 25.1 | – | – |
| Cc1nc(Nc2ccccc2)sc1C(=O)/C=C/c1ccccc1Cl | > 25 | > 25 | 22.8 | > 25 | – | – | – |
| Cc1nc(Nc2ccc(Cl)cc2)sc1C(=O)/C=C/c1ccc(Cl)cc1 | > 25 | > 25 | > 25 | > 25 | – | – | – |
| O=P1(N(CCCl)CCCl)NCCCO1 (centres undefined) [CYCLOPHOSPHAMIDE ANHYDROUS] | – | – | – | – | – | 91.7 | – |
| Cc1nc(Nc2cccc(Cl)c2)sc1C(=O)/C=C/c1ccc(Cl)cc1 | > 25 | > 25 | > 25 | > 25 | – | – | – |
| COc1cccc(/C=C/C(=O)c2sc(Nc3cccc(Cl)c3)nc2C)c1 | > 25 | > 25 | – | > 25 | – | – | – |

| Compound | IC50 [1] [µM] | IC50 [2] [µM] | IC50 [3] [µM] | IC50 [4] [µM] | inhibition in vivo at 50 mg/kg [5] [%] | inhibition in vivo at 100 mg/kg [6] [%] | inhibition in vivo at 25 mg/kg [7] [%] |
| --- | --- | --- | --- | --- | --- | --- | --- |
| Cc1ccc(Nc2nc(C)c(C(=O)/C=C/c3ccccc3Cl)s2)cc1 | > 25 | > 25 | > 25 | > 25 | – | – | – |
| Cc1ccccc1Nc1nc(C)c(C(=O)/C=C/c2ccccc2Cl)s1 | > 25 | > 25 | > 25 | > 25 | – | – | – |
| COc1cccc(/C=C/C(=O)c2sc(Nc3ccc(Cl)cc3)nc2C)c1 | > 25 | > 25 | > 25 | > 25 | – | – | – |
| COc1cccc(/C=C/C(=O)c2sc(Nc3ccccc3)nc2C)c1 | > 25 | > 25 | 14.3 | > 25 | – | – | – |
| COc1ccc(/C=C/C(=O)c2sc(Nc3ccc(Cl)cc3)nc2C)cc1 | > 25 | > 25 | > 25 | > 25 | – | – | – |
| Cc1cccc(Nc2nc(C)c(C(=O)/C=C/c3ccccc3Cl)s2)c1 | 22.2 | > 25 | 24.2 | > 25 | – | – | – |
| COc1cccc(/C=C/C(=O)c2sc(Nc3ccc(Cl)c(Cl)c3)nc2C)c1 | 10.1 | 20.1 | 8.35 | > 25 | – | – | – |
| COc1cc(/C=C/C(=O)c2sc(Nc3ccc(F)c(Cl)c3)nc2C)cc(OC)c1OC | – | 6.31 | 9.7 | – | 22.6 | – | 23 |
| Cc1cccc(Nc2nc(C)c(C(=O)/C=C/c3ccccc3)s2)c1 | 11.7 | 21.8 | 13.6 | > 25 | – | – | – |
| COc1ccc(/C=C/C(=O)c2sc(Nc3ccc(Cl)c(Cl)c3)nc2C)cc1 | > 25 | > 25 | > 25 | > 25 | – | – | – |
| COc1cc(/C=C/C(=O)c2sc(Nc3ccc(Cl)cc3)nc2C)cc(OC)c1OC | > 25 | 22 | > 25 | > 25 | – | – | – |
| COc1cc(/C=C/C(=O)c2sc(Nc3cccc(C)c3)nc2C)cc(OC)c1OC | > 25 | 19.8 | 17.2 | > 25 | – | – | – |
| Cc1ccccc1Nc1nc(C)c(C(=O)/C=C/c2ccc(Cl)cc2)s1 | > 25 | > 25 | > 25 | > 25 | – | – | – |
| Cc1ccccc1Nc1nc(C)c(C(=O)/C=C/c2ccccc2)s1 | > 25 | > 25 | > 25 | > 25 | – | – | – |
| Cc1ccc(Nc2nc(C)c(C(=O)/C=C/c3ccc4c(c3)OCO4)s2)cc1 | > 25 | > 25 | > 25 | > 25 | – | – | – |
| Cc1ccc(Nc2nc(C)c(C(=O)/C=C/c3ccccc3)s2)cc1 | > 25 | > 25 | > 25 | > 25 | – | – | – |
| Cc1cccc(Nc2nc(C)c(C(=O)/C=C/c3ccc(Cl)cc3)s2)c1 | > 25 | > 25 | > 25 | > 25 | – | – | – |
| COc1cc(/C=C/C(=O)c2sc(Nc3ccc(C)cc3)nc2C)cc(OC)c1OC | > 25 | > 25 | > 25 | > 25 | – | – | – |
| Cc1nc(Nc2cccc(Cl)c2)sc1C(=O)/C=C/c1ccccc1 | > 25 | > 25 | > 25 | > 25 | – | – | – |
